{"source": "paper PMC7247561", "about": "“Characterization of ABC Transporters in EpiAirway™, a Cellular Model of Normal Human Bronchial Epithelium” (International Journal of Molecular Sciences, 2020)", "key": {"BCRP [1]": {"biological_target": "T1, BCRP (Homo sapiens, UniProt Q9UNQ0)", "T1 sequence (Q9UNQ0 1-655)": "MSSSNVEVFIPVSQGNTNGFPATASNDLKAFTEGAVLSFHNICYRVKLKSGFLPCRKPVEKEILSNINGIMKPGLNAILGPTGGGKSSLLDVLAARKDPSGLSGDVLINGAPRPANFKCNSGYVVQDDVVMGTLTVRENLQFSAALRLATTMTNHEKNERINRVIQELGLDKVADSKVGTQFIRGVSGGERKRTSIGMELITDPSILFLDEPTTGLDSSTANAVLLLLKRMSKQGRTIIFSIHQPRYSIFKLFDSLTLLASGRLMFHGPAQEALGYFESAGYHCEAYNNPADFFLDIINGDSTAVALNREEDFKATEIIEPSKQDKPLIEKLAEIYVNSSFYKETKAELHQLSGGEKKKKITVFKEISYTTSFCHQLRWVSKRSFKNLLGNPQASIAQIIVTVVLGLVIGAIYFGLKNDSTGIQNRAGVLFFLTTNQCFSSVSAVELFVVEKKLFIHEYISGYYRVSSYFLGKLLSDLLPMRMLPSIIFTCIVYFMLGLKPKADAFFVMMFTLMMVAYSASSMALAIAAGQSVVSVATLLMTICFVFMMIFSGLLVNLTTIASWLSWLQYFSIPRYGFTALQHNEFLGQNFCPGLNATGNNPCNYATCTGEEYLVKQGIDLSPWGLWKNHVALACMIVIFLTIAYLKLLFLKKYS", "method": "(§2) The activity of ABC transporters was assessed by measuring the apical-to-basolateral (AB) and basolateral-to-apical (BA) fluxes of specific substrates. To this aim, cell monolayers were washed twice in HBSS and equilibrated for 30 min in the same solution (pH 7.4, 37 °C). […] Aliquots of the solution in the receiver chamber were collected after 0 min, 30 min, 60 min and 120 min and replaced with fresh HBSS. The fluxes were determined by measuring fluorescence with an EnSpire® Multimode Plate Reader (Perkin Elmer), or radioactivity with MicroBeta^2 liquid scintillation spectrometer. Data obtained were employed to calculate the apparent permeability coefficient (Papp). The integrity of cell monolayers, verified by measuring TEER before and after the experiment, was not modified by the experimental procedures.\n(§3) Efflux ratio (ER) was calculated as the ratio between Papp measured for BA and AB fluxes, while uptake ratio (UR) was calculated as the ratio between Papp measured for AB and BA fluxes."}, "BCRP [2]": {"biological_target": "T1, BCRP", "experiment": "BCRP activity, bidirectional transport of 3H-mitoxantrone in EpiAirway", "details": "21 d at ALI, 10 µM Febuxostat", "method": "as §2, §3"}, "MDR1 [3]": {"system": "MDR1", "experiment": "MDR1 activity, bidirectional transport of Rhodamine 123 in EpiAirway", "assay_type": "in vitro ADME, human"}, "MDR1 [4]": {"biological_target": "T2, MDR1 (Homo sapiens, UniProt P08183)", "T2 construct": "MDR1 in Calu-3 cultures is expressed and operative on the apical membrane of the cells only after 21 d at ALI; endogenous in cells; host or cells: Calu-3 cells at air-liquid interface, 8 d or 21 d", "T2 sequence (P08183 whole entry)": "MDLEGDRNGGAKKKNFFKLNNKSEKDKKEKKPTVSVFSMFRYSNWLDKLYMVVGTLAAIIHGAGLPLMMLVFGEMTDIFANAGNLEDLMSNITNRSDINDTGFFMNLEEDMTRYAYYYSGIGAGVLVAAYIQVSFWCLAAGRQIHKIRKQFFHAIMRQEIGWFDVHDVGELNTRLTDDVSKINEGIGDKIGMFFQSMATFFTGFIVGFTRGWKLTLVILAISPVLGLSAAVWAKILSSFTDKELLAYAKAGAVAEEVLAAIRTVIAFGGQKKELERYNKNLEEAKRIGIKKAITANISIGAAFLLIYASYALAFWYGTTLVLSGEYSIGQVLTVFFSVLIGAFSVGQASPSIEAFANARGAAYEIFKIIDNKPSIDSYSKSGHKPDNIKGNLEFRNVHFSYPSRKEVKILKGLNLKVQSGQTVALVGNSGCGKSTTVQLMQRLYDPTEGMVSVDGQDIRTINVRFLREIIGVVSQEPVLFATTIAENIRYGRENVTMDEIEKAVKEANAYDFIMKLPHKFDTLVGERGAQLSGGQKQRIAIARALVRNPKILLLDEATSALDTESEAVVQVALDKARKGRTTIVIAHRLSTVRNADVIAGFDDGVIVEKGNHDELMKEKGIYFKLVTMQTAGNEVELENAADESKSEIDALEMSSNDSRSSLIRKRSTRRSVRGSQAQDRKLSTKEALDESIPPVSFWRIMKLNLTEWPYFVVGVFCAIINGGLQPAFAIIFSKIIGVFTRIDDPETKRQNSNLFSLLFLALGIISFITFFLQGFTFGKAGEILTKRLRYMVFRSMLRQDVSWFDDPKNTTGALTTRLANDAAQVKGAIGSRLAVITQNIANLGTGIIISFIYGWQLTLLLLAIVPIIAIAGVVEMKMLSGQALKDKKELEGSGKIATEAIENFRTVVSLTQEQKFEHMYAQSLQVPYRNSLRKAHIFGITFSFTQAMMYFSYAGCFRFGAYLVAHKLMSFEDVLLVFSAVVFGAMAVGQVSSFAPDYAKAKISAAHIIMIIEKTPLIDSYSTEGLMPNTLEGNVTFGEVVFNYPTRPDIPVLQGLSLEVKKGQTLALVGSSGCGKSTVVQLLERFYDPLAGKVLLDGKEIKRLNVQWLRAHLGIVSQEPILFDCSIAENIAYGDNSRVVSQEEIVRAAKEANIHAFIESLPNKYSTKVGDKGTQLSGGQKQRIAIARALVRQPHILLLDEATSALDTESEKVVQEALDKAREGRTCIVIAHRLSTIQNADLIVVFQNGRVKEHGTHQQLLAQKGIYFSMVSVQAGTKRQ", "experiment": "MDR1 activity, bidirectional transport of Rhodamine 123 in Calu-3", "assay_type": "in vitro ADME", "details": "1 µM Rhodamine 123", "method": "as §2, §3"}, "MDR1 (P-glycoprotein)": {"biological_target": "T3, MDR1 (P-glycoprotein) (Homo sapiens, UniProt P08183)", "T3 construct": "MDR1 in Calu-3 cultures is expressed and operative on the apical membrane of the cells only after 21 d at ALI; endogenous in cells; host or cells: Calu-3 cells at air-liquid interface, 8 d or 21 d", "T3 sequence (P08183 whole entry)": "as above", "experiment": "MDR1 activity, bidirectional transport of Rhodamine 123 in Calu-3", "assay_type": "in vitro ADME", "details": "human, Calu-3, 21 d at ALI", "method": "as §2, §3"}, "EpiAirway™": {"system": "EpiAirway™", "assay_type": "in vitro ADME, human", "protocol": "(§1) In parallel, the paracellular and transcellular permeability of cultures to solutes was assessed by monitoring the apical-to-basolateral fluxes of ^14C-mannitol and ^3H-propranolol, respectively. In detail, cell monolayers were washed and incubated for 30 min in Hank’s Balanced Salt Solution (HBSS, pH 7.4, 37 °C); HBSS containing ^14C-mannitol (1 µCi/mL, corresponding to 20 µM) or ^3H-propranolol (3 µCi/mL; 10 µM) was then added to the apical side (donor chamber) of the monolayers."}, "Calu-3 cells": {"system": "Calu-3 cells", "experiment": "Paracellular and transcellular permeability (apical-to-basolateral Papp) in Calu-3", "assay_type": "in vitro ADME, human", "details": "Calu-3, after 21 d at ALI, AB flux, 20 µM 14C-mannitol", "protocol": "as §1"}}, "note": "Read-outs that look alike come from different tables or passages of the source."}
{"smiles": "Cc1nc(-c2ccc(OCC(C)C)c(C#N)c2)sc1C(=O)O", "note": "[Febuxostat]", "values": [{"measurement": "effect of inhibitor on Papp for AB flux of 3H-mitoxantrone", "setting": "BCRP [1]", "result": "modest but significant decrease"}, {"measurement": "effect of inhibitor on BA flux of 3H-mitoxantrone", "setting": "BCRP [2]", "result": "remained almost unaffected"}, {"measurement": "effect of inhibitor on uptake ratio (UR) of 3H-mitoxantrone", "setting": "BCRP [2]", "result": "slight decrease"}]}
{"smiles": "C/C=C/C[C@@H](C)C(=O)[C@H]1C(=O)N[C@@H](C(C)C)C(=O)N(C)CC(=O)N(C)[C@@H](CC(C)C)C(=O)N[C@@H](C(C)C)C(=O)N(C)[C@@H](CC(C)C)C(=O)N[C@@H](C)C(=O)N[C@H](C)C(=O)N(C)[C@@H](CC(C)C)C(=O)N(C)[C@@H](CC(C)C)C(=O)N(C)[C@@H](C(C)C)C(=O)N1C", "note": "[PSC833]", "values": [{"measurement": "effect of inhibitor on Rhodamine 123 fluxes", "setting": "MDR1 [3]; 8 d and 21 d at ALI, 10 µM PSC833", "result": "lack of inhibition"}]}
{"smiles": "COC(=O)c1ccccc1-c1c2ccc(=N)cc-2oc2cc(N)ccc12", "note": "[Rhodamine 123]", "values": [{"measurement": "AB vs BA fluxes", "setting": "MDR1 [3]; 8 d and 21 d at ALI, 1 µM Rhodamine 123", "result": "no differences"}, {"measurement": "values of Papp and ER", "setting": "MDR1 [3]; Rhodamine 123 fluxes", "result": "very low"}, {"measurement": "Papp for AB vs BA fluxes", "setting": "MDR1 [4]; Calu-3, 8 d at ALI", "result": "comparable"}, {"measurement": "Papp for BA transport vs AB flux", "setting": "MDR1 [4]; Calu-3, 21 d at ALI", "result": "hugely higher than that of AB flux"}, {"measurement": "efflux ratio at 120 min, 1 µM", "setting": "MDR1 (P-glycoprotein); pH 7.4, probe Rhodamine 123, with PSC833 10 µM, 1 µM Rhodamine 123, + 10 µM PSC833, read-out: efflux ratio (ER) in the presence of the inhibitor", "result": 2.8}, {"measurement": "efflux ratio at 120 min, 1 µM", "setting": "MDR1 (P-glycoprotein); pH 7.4, probe Rhodamine 123, 1 µM Rhodamine 123, control (no inhibitor), read-out: efflux ratio (ER)", "result": 7}]}
{"smiles": "OC[C@@H](O)[C@@H](O)[C@H](O)[C@H](O)CO", "note": "[mannitol]", "values": [{"measurement": "mannitol permeability (Papp), 8 d vs 21 d of culture", "setting": "EpiAirway™", "result": "no difference"}, {"measurement": "Papp for mannitol, 21 d vs 8 d of culture", "setting": "Calu-3 cells", "result": "decreased"}]}
{"smiles": "CC(C)NCC(O)COc1cccc2ccccc12", "note": "(stereo not shown) [propranolol]", "values": [{"measurement": "propranolol permeability (Papp), EpiAirway vs Calu-3", "setting": "EpiAirway™; human, 120 min, 10 µM, pH 7.4", "result": "slightly higher than that of Calu-3 cells"}]}
